Laboratory results: PMC4890005, “Newly identified motifs in Candida albicans Cdr1 protein nucleotide binding domains are pleiotropic drug resistance subfamily-specific and functionally asymmetric” (Scientific Reports, 2016)

How the values were obtained:
[1] = test system: Nc1ncnc2c1ncn2[C@@H]1O[C@H](COP(=O)(O)OP(=O)(O)OP(=O)(O)O)[C@@H](O)[C@H]1O; test: cells, lysate or membranes; conditions: 30 °C, Mg-ATP, GFP-tagged wild type
From the text: oligomycin-sensitive ATPase, Pi release, plasma membrane fraction; Lineweaver-Burk on Cdr1p (Cdr1p-GFP)

Cdr1p (Cdr1p-GFP) [2] = biological target: T1, Cdr1p (Cdr1p-GFP) (Candida albicans, UniProt Q5ANA3); test: R6G binding, from drug transport kinetics of overexpressing yeast (method not detailed); assay type: cell-based
T1 construct: gene CDR1; plasmid pPSCDR1-GFP integrated at PDR5 locus of S. cerevisiae AD1-8u-; plasma membrane fractions or cells

Cdr1p (Cdr1p-GFP) [3] = biological target: T2, Cdr1p (Cdr1p-GFP) (Candida albicans, UniProt Q5ANA3, DEL903-903); test: cell-based
T2 construct: gene CDR1
From the text: (§1) R6G binding, from drug transport kinetics of overexpressing yeast (method not detailed) on Cdr1p (Cdr1p-GFP)

Cdr1p (Cdr1p-GFP) [4] = biological target: T3, Cdr1p (Cdr1p-GFP) (Candida albicans, UniProt Q5ANA3, DEL905-905); test: cell-based
T3 construct: gene CDR1
From the text: as §1

Compound | Km [1] [mM] | Vmax [1] [µmol/min/mg] | Kd (Cdr1p (Cdr1p-GFP) [2]) [µM] | Kd (Cdr1p (Cdr1p-GFP) [3]) [µM] | Kd (Cdr1p (Cdr1p-GFP) [4]) [µM]
Cdr1p (Cdr1p-GFP) (Candida albicans SC5314) | 2.1 ± 0.5 | 0.105 | – | – | –
CCN=c1cc2oc3cc(NCC)c(C)cc3c(-c3ccccc3C(=O)OCC)c-2cc1C [Rhodamine 6G] | – | – | 9 ± 1.8 | 11.9 ± 1.9 | 25 ± 2
